Source: patent US20240246978A1, “PHENYLDIHYDROPYRIMIDINE COMPOUND AND USE THEREOF” (HEPAGENE THERAPEUTICS (HK) LIMITED, priority 2021, published 2024)

These compounds were tested on Hepatitis B virus (HBV) (assay: In vitro anti-HBV activity by q-PCR assay of HBV DNA in HepG2.2.15 cell supernatant). Conditions: HepG2.2.15 cells; inhibition of HBV DNA copies in supernatant by qPCR; compound renewed after 3 days, 3 more days; 0.5% DMSO; read-out: EC50.
Format: cell-based
Description: Compound preparation and cell culture: The test compounds were prepared as 20 mM storage solution using the appropriate volume of dimethyl sulfoxide (DMSO) (Sigma-D2650) according to the relative molecular weight and mass.
The growth of HepG2.2.15 cells (Wuhan Institute of Virology, Chinese Academy of Sciences) in the culture flasks were observed under a microscope, the cells were digested with trypsin (Invitrogen-25300062), and resuspended with cell culture medium (DMEM/F12, Invitrogen-11330032; containing 2% fetal bovine serum FBS, HyClone-SV30087.03, 100 U/Ml penicillin, Hyclone-SV30010, 100 μg/mL streptomycin, Hyclone-SV30010, 1% non-essential amino acids, Invitrogen-11140-050, 2 mM L-glutamine, Gibco-35050-061); the cells were counted using a Vi-Cell cell counter and the volume and concentration of cell suspension were adjusted according to the number of cell spreads and the number of cells required per well, and the cell spreading density of the 96-well cell culture plates (Costar-3599) was 60,000 cells/well, 100 μL/well; the cell plates with the cells were placed in a 5% CO2, 37° C. incubator and incubated overnight.
The experiments were set at a starting concentration of 100 μM for the test compound and 20 nM for the reference compound entecavir (ETV, WuXi AppTec), with a 3-fold gradient dilution and 9 concentration points. A 96-well V-bottom plate was used, the corresponding test compounds and reference compounds ETV were diluted to obtain 200× compound source plate; a sterile 2 mL deep-well plate was added with 297 μL of cell culture medium, 3 μL of the compounds in the 200× compound source plate were added to the corresponding deep-well plate, diluted by 100-fold, and mixed well with a pipette tip blowing to obtain a 2× compound plate, and then the plate was sealed with parafilm and then stored in a nitrogen cabinet to be used for replacement of the compounds. The cell plate laid out the day before was took and added with 100 μL of diluted 2× compound to each of the corresponding cell wells with a final concentration of 0.5% DMSO. Example of compound distribution in the cell plate is shown below*:
After the cell plates were reintroduced into a 5% CO2, 37° C. cell incubator for 3 days, the medium was removed from the cell culture plates and 100 μL of cell culture solution was replenished to each well. The 200× compound source plate configured was removed from the nitrogen cabinet, a sterile 2 mL deep-well plate was added with 297 μL of cell culture medium, 3 μL of the compounds in the 200× compound source plate was added to the corresponding deep-well plate, diluted by 100-fold, and mixed well with a pipette tip blowing to obtain a 2× compound plate. To the cell wells containing 100 μL of medium, 100 μL of diluted 2× compound was added, with a final concentration of DMSO of 0.5%; the cell plates were reintroduced into 5% CO2 and incubated in a 37° C. cell incubator for 3 days.
The 96-well cell plate was removed from the incubator, centrifuged at 3,000 rpm for 2 min with centrifuge (Beckman, Allegra-X15R), and the cell supernatant was collected for subsequent HBV DNA extraction. 50 μL of cell culture solution were added to each well in the cell plate, then 50 μL of CellTiter-Glo Detection Reagent (Promega-G7573) were added to each well, and the plate was shaken for 10 min away from light to allow the cells to be lysed; the luminescence value of each well was detected by using an enzyme labeller (BioTek Synergy 2).
HBV DNA Extraction: HBV DNA was extracted from cell supernatants using the QIAamp 96 DNA Blood Kit (Qiagen-51162) as described in the kit instructions; the volume of cell supernatant was 150 μL and the final DNA elution volume was 180 μL. […]

**Q.** For `C#Cc1cc(F)ccc1[C@H]1N=C(c2nccs2)NC(CN2CCN3C(=O)N(CC(C)(C)C(=O)O)C[C@@H]3C2)=C1C(=O)OCC` [SZ-023089], which EC50 is on record?
**A.** < 50 nM

**Q.** `C#Cc1cc(F)ccc1[C@H]1N=C(c2nccs2)NC(CN2[C@@H]3CC(CC(=O)O)C[C@H]2C(F)(F)C3)=C1C(=O)OCC` (some centres unmarked) [SZ-023091] was tested. Which EC50 did it give?
**A.** < 50 nM

**Q.** How did the EC50 turn out when `C#Cc1cc(F)ccc1[C@@H]1N=C(c2nccs2)NC(CN2CCO[C@H](/C=C/C(=O)O)C2)=C1C(=O)OCC` [SZ-023093] was run?
**A.** < 50 nM

**Q.** For `C#Cc1cc(F)ccc1[C@H]1N=C(c2nccs2)NC(CN2CCO[C@H](CCC(=O)O)C2)=C1C(=O)OCC` [SZ-023095], which EC50 is on record?
**A.** < 50 nM

**Q.** Which EC50 does the source give for `C#Cc1cc(F)ccc1[C@@H]1N=C(c2nccs2)NC(CN2CCOCC2)=C1C(=O)OCC` [SZ-023115-P1] here?
**A.** > 1000 nM

**Q.** How did the EC50 turn out when `C#Cc1cc(F)ccc1[C@H]1N=C(c2nccs2)NC(CN2CCOCC2)=C1C(=O)OCC` [SZ-023115-P2] was run?
**A.** < 50 nM

Same assay, conditions: Hepatitis B virus, 72 h; HepG2.2.15 cells; inhibition of HBV DNA copies in supernatant by qPCR; compound renewed after 3 days, 3 more days; 0.5% DMSO; read-out: EC50

**Q.** With `C#Cc1cc(F)ccc1C1N=C(c2nccs2)NC(CN2CCN3C(=O)N(CC(C)(C)C(=O)O)C[C@@H]3C2)=C1C(=O)OCC` (mixture of isomers) [SZ-023089RAC] as the compound, how does the EC50 read?
**A.** < 50 nM

**Q.** Which EC50 does the source give for `C#Cc1cc(F)ccc1C1N=C(c2nccs2)NC(CN2CCO[C@H](/C=C/C(=O)O)C2)=C1C(=O)OCC` (mixture of isomers) [SZ-023093RAC] here?
**A.** < 50 nM

**Q.** `C#Cc1cc(F)ccc1C1N=C(c2nccs2)NC(CN2CCO[C@H](CCC(=O)O)C2)=C1C(=O)OCC` (mixture of isomers) [SZ-023095RAC] was tested. Which EC50 did it give?
**A.** 50 to 100 nM

**Q.** Which EC50 does the source give for `C#Cc1cc(F)ccc1C1N=C(c2nccs2)NC(CN2CCOCC2)=C1C(=O)OCC` (racemic) [SZ-023115RAC] here?
**A.** < 50 nM

**Q.** How did the EC50 turn out when `CCOC(=O)C1=C(CN2CCOCC2)NC(c2nccs2)=NC1c1ccc(F)cc1C#N` (racemic) [SZ-023117RAC] was run?
**A.** 50 to 100 nM

**Q.** With `C#Cc1c(C2N=C(c3nccs3)NC(CN3CCN4C(=O)N(CC(C)(C)C(=O)O)C[C@@H]4C3)=C2C(=O)OCC)ccc(F)c1F` (some centres unmarked) [SZ-023127] as the compound, how does the EC50 read?
**A.** < 50 nM

**Q.** With `C#Cc1cc(F)c(F)cc1[C@@H]1N=C(c2nccs2)NC(CN2CCN3C(=O)N(CC(C)(C)C(=O)O)C[C@@H]3C2)=C1C(=O)OCC` [SZ-023129] as the compound, how does the EC50 read?
**A.** 100 to 1000 nM

**Q.** With `[2H]C([2H])([2H])C([2H])([2H])OC(=O)C1=C(CN2CCN3C(=O)N(CC(C)(C)C(=O)O)C[C@@H]3C2)NC(c2nccs2)=N[C@H]1c1cccc(F)c1C#C` [SZ-023133] as the compound, how does the EC50 read?
**A.** < 50 nM

**Q.** `[2H]C([2H])([2H])OC(=O)C1=C(CN2CCO[C@H](/C=C/C(=O)O)C2)NC(c2nccs2)=N[C@H]1c1ccc(F)cc1C#C` [SZ-023143] was tested. Which EC50 did it give?
**A.** < 50 nM

**Q.** `C#Cc1cc(F)ccc1[C@@H]1N=C(c2nccs2)NC(CN2CCN3C(=O)N(CC(C)(C)C(=O)O)C[C@@H]3C2)=C1C(=O)OC` [SZ-023145] was tested. Which EC50 did it give?
**A.** < 50 nM

**Q.** Which EC50 does the source give for `[2H]C([2H])([2H])OC(=O)C1=C(CN2CCN3C(=O)N(CC(C)(C)C(=O)O)C[C@@H]3C2)NC(c2nccs2)=N[C@H]1c1ccc(F)cc1C#C` [SZ-023147] here?
**A.** < 50 nM

**Q.** Which EC50 does the source give for `[2H]C([2H])([2H])C([2H])([2H])OC(=O)C1=C(CN2CCN3C(=O)N(CC(C)(C)C(=O)O)C[C@@H]3C2)NC(c2nccs2)=N[C@H]1c1ccc(F)cc1C#C` [SZ-023149] here?
**A.** < 50 nM

**Q.** Which EC50 does the source give for `C#Cc1cc(F)ccc1[C@@H]1N=C(c2nccs2)NC(CN2CCN3C(=O)N(CC(C)(C)C(=O)O)C[C@@H]3C2)=C1C(=O)SC` [SZ-023151] here?
**A.** 100 to 1000 nM

**Q.** `C#Cc1cc(F)ccc1[C@@H]1N=C(c2nccs2)NC(CN2CCO[C@H](C3CC3C(=O)O)C2)=C1C(=O)OCC` (some centres unmarked) [SZ-023342] was tested. Which EC50 did it give?
**A.** 50 to 100 nM

**Q.** For `C#Cc1cc(Cl)ccc1C1N=C(c2nccs2)NC(CN2CCN3C(=O)N(CC(C)(C)C(=O)O)C[C@@H]3C2)=C1C(=O)OCC` (some centres unmarked) [SZ-023366], which EC50 is on record?
**A.** < 50 nM

**Q.** How did the EC50 turn out when `C#Cc1cc(C)ccc1C1N=C(c2nccs2)NC(CN2CCN3C(=O)N(CC(C)(C)C(=O)O)C[C@@H]3C2)=C1C(=O)OCC` (some centres unmarked) [SZ-023368] was run?
**A.** 100 to 1000 nM

**Q.** For `C#Cc1ccccc1C1N=C(c2nccs2)NC(CN2CCN3C(=O)N(CC(C)(C)C(=O)O)C[C@@H]3C2)=C1C(=O)OCC` (some centres unmarked) [SZ-023370], which EC50 is on record?
**A.** 50 to 100 nM

**Q.** How did the EC50 turn out when `C#Cc1cc(Cl)ccc1C1N=C(c2nccs2)NC(CN2CCN3C(=O)N(c4ccc(CCC(=O)O)cc4)C[C@@H]3C2)=C1C(=O)OCC` (some centres unmarked) [SZ-023380] was run?
**A.** < 50 nM

**Q.** Which EC50 does the source give for `C#Cc1cc(F)ccc1[C@@H]1N=C(c2nccs2)NC(CN2CCN3C(=O)N(c4ccc(CCC(=O)O)cc4)C[C@@H]3C2)=C1C(=O)OCC` [SZ-023384] here?
**A.** < 50 nM

**Q.** Which EC50 does the source give for `C#Cc1c(F)cccc1[C@@H]1N=C(c2nccs2)NC(CN2CCN3C(=O)N(c4ccc(CCC(=O)O)cc4)C[C@@H]3C2)=C1C(=O)OCC` [SZ-023386] here?
**A.** < 50 nM

**Q.** `C#Cc1cc(F)ccc1[C@@H]1N=C(c2nccs2)NC(CN2CCN3C(=O)N(c4ccc(C(=O)O)c(F)c4)C[C@@H]3C2)=C1C(=O)OCC` [SZ-023388] was tested. Which EC50 did it give?
**A.** < 50 nM

**Q.** How did the EC50 turn out when `C#Cc1c(F)cccc1[C@@H]1N=C(c2nccs2)NC(CN2CCN3C(=O)N(c4ccc(C(=O)O)c(F)c4)C[C@@H]3C2)=C1C(=O)OCC` [SZ-023390] was run?
**A.** < 50 nM

**Q.** `C#Cc1cc(F)ccc1[C@@H]1N=C(c2nccs2)NC(CN2CCN3C(=O)N(CC(C)(C)CC(=O)O)C[C@@H]3C2)=C1C(=O)OCC` [SZ-023392] was tested. Which EC50 did it give?
**A.** < 50 nM

Same assay, conditions: Hepatitis B virus, HepG2.2.15, 72 h

**Q.** Which EC50 does the source give for `C#Cc1cc(F)ccc1C1N=C(c2nccs2)NC(CN2[C@@H]3C[C@H](CC(=O)O)C[C@H]2C(F)(F)C3)=C1C(=O)OCC` (mixture of isomers) [SZ-023091RAC] here?
**A.** < 50 nM

**Q.** Which EC50 does the source give for `C#Cc1c(F)cccc1[C@@H]1N=C(c2nccs2)NC(CN2[C@@H]3C[C@H](CC(=O)O)C[C@H]2C(F)(F)C3)=C1C(=O)OCC` [SZ-023085C] here?
**A.** < 50 nM

**Q.** For `C#Cc1cc(F)ccc1[C@@H]1N=C(c2nccs2)NC(CN2[C@@H]3CC(CC(=O)O)C[C@H]2C(F)(F)C3)=C1C(=O)OCC` (some centres unmarked) [SZ-023091C], which EC50 is on record?
**A.** < 50 nM
